From the NIST ThermoML archive (doi:10.1021/je400884v)
Numbers after ± are expanded uncertainties.

Experiment: an = ratio of the nth substance listed
Conditions: 101 kPa, Liquid, Pycnometric method

`OCCCCO` [1,4-butanediol] + C[N+](C)(C)CCO.[Cl-] gave a mass density (293.15 K, a2 = 0.25) of 1044.5 ± 1.7 kg/m3, a mass density (293.15 K, a2 = 0.33) of 1052.4 ± 1.7 kg/m3 and a mass density (303.15 K, a2 = 0.25) of 1041.1 ± 1.7 kg/m3. The mass density (303.15 K, a2 = 0.33) was 1049 ± 1.7 kg/m3, the mass density (313.15 K, a2 = 0.25) was 1035.4 ± 1.7 kg/m3 and the mass density (313.15 K, a2 = 0.33) was 1043.2 ± 1.7 kg/m3. The mass density (323.15 K, a2 = 0.25) was 1030.6 ± 1.7 kg/m3 and the mass density (323.15 K, a2 = 0.33) was 1038.4 ± 1.7 kg/m3.
Compound `CC(O)C(C)O` (centres undefined) [2,3-butanediol] + C[N+](C)(C)CCO.[Cl-] has a mass density (293.15 K, a2 = 0.25) of 1035 ± 1.7 kg/m3, a mass density (293.15 K, a2 = 0.33) of 1046.8 ± 1.7 kg/m3 and a mass density (303.15 K, a2 = 0.25) of 1030.9 ± 1.7 kg/m3. It also gave a mass density (303.15 K, a2 = 0.33) of 1039 ± 1.7 kg/m3, a mass density (313.15 K, a2 = 0.25) of 1026.5 ± 1.7 kg/m3 and a mass density (313.15 K, a2 = 0.33) of 1035.7 ± 1.7 kg/m3. For the same compound, the mass density (323.15 K, a2 = 0.25) was 1019.7 ± 1.7 kg/m3 and the mass density (323.15 K, a2 = 0.33) was 1030 ± 1.7 kg/m3.
Compound `C[N+](C)(C)CCO.[Cl-]` [choline chloride] + CC(O)CO has a mass density (293.15 K, a1 = 0.25) of 1066.3 ± 1.7 kg/m3, a mass density (293.15 K, a1 = 0.33) of 1066.6 ± 1.7 kg/m3 and a mass density (303.15 K, a1 = 0.25) of 1060.2 ± 1.7 kg/m3. The mass density (303.15 K, a1 = 0.33) was 1059.9 ± 1.7 kg/m3, the mass density (313.15 K, a1 = 0.25) was 1054.1 ± 1.7 kg/m3 and the mass density (313.15 K, a1 = 0.33) was 1053.3 ± 1.7 kg/m3. For the same compound, the mass density (323.15 K, a1 = 0.25) was 1048 ± 1.7 kg/m3 and the mass density (323.15 K, a1 = 0.33) was 1046.7 ± 1.7 kg/m3.
